Here are results for twelve compounds from patent publication US7872101B1, “Modulators of the orphan G protein-coupled receptors GPR78 and GPR26” (Schering Corporation, priority 2006, dated 2011).

Broadly, the IC50 is the concentration that gives 50% inhibition. What is called EC50 is the concentration that produces a half-maximal response.

Like-named read-outs stand apart in the source and are kept apart here.

The target of assay [1] is T1, GPR78 (Homo sapiens, UniProt Q96P69).
T1 construct: Full length open reading frames (ORFS) of GPR78 and GPR26 were obtained with PCR; expressed in transfected cells; host or cells: HEK293/cre-luc
The experiment in a line: cre-luciferase cAMP reporter assay in GPR78-transfected HEK293/cre-luc cells. The assay is classed as cell-based. Particulars: for cAMP level compared with GPR78-expressing cells stimulated with buffer (Basal): Tyrphostin B42 at 23 μM, Tyrphostin A9 at 24 μM; for cAMP stimulation: final concentration 300 μM in 1.5% DMSO, luciferase reporter assay and direct cAMP measurement (Perkin-Elmer kit); for effect on genistein-induced cAMP: FIG. 6A; for cAMP level compared to buffer control / genistein: isoflavones, FIG. 3. Here is the method:
(§1) HEK293/cre-luc cells were harvested by 0.05% trypsin EDTA buffer, cells re-suspended in complete culture medium 20 million in […] transfection cuvette, 1 microgram receptor plasmid was transfected into reporter cells by electroporation method. The parameter of the GenePulser (Bio-Rad Laboratories, Hercules, Calif.) was set at: voltage 200 volts and capacity 500 microfarads. After electroporation, cells were re-suspended at a density of 25,000 cells in 25 μl complete medium, placed in 384-well plate. After 24 hours of transfection, the transfection medium was replaced with fresh complete medium. Empty plasmid vector was transfected as a negative control (mock transfection).
When inhibitors were used in the assay, they were added 30 minutes before cell stimulation. At the end of incubation, 25 μl of Bright-Glo™ obtained from Promega (Madison, Wis.) was added into each well. Luciferase activity was determined with a luminometer (Luminoskan Ascent®, Thermo-Electron Corp.), at a speed of 100 milliseconds per well.
Response of cells with the expressed receptor to test ligand stimulation was subject to two types of detection: intracellular cAMP accumulation and intracellular Ca2+ flux monitored with fluorescent intensity using a Fluorimetric Image Plate Reader (FLIPR).
For orientation: Reporter assays use an easily measured gene product as a stand-in for the process of interest.

A further assay deals with protein tyrosine kinase. Particulars: literature values; for genistein depending on the substrates used; read-out: IC50, inhibition of protein tyrosine kinase; cited from earlier work.
The target of assay [2] is T2, GPR26 (Homo sapiens, UniProt Q8NDV2).
T2 construct: Full length open reading frames (ORFS) of GPR78 and GPR26 were obtained with PCR; expressed in transfected cells; host or cells: HEK293/cre-luc
Briefly: antagonist cre-luc reporter assay, inhibition of GPR26 activation. The assay is classed as cell-based. Here is the method:
(§2) Screening was performed by using cells transiently expressing GPR26 or GPR78. HEK293/cre-luc cells were harvested by using 0.05% trypsin EDTA solution, and were suspended in complete culture medium at a density of 20 million in 0.4 ml transfection cuvettes. One 1 microgram plasmid construct containing GPR78 or GPR26 cDNA was transfected into reporter cells by electroporation using the GenePulser (Bio-Red Laboratories, Hercules, Calif.). The transfection conditions were: voltage at 200 volts and capacity at 500 microfarads. After electroporation, cells were suspended at a density of 25,000 cells in 25 μl complete medium and placed in a 384-well plate. After 24 hours of transfection, the transfection medium was replaced with fresh complete medium. Empty plasmid vector was transfected as a negative control (mock transfection). The compounds were arranged in 96-well format in eight racks of 80, with one compound per well (250 μl at 10 mM in DMSO). […] By the end of incubation, 25 ul of Bright-Glo™ (Promega, Madison, Wis.) was added into each well. Luciferase activity was determined with a Luminometer (Luminoskan Ascent, Thermo Labsystems), at a speed of 100 milliseconds per well.
(§3) To determine the inhibitory potency of the two molecules, dose-response curves were generated with the same assay method and IC50 values calculated from the curves.

A further assay relates to rabbit aortic rings. The settings on record: read-out: IC50, block of acetylcholine-induced relaxation, ref [40]; cited from earlier work.
Assay [3] concerns the target T1, GPR78. The experiment in a line: antagonist cre-luc reporter assay, inhibition of GPR78 activation. The assay is classed as cell-based. Here is the method:
as §2, §3

Another assay concerns the target NO synthase (NOS) (Mus musculus, UniProt P29477). The settings on record: read-out: IC50, inhibition of NOS; cultured peritoneal macrophages, ref [40]; cited from earlier work.
The target of the next assay is T3, GPR154 (Homo sapiens, UniProt Q6W5P4).
T3 construct: expressed in transfected cells; host or cells: HEK293/cre-luc
T3 sequence (Q6W5P4 1-371): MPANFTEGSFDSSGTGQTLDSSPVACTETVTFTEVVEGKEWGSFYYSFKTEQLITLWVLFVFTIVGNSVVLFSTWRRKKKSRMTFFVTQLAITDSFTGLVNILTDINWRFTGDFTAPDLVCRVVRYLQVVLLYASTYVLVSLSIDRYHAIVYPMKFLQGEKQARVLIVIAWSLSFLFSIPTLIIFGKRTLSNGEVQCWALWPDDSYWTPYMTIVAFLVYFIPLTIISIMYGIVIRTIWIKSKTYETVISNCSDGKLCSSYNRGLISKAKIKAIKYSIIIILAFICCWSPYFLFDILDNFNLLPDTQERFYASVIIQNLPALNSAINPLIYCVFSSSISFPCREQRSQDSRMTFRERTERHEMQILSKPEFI
The experiment in a line: Ca2+ flux assay (FLIPR), positive control receptor. The assay is classed as cell-based. The settings on record: FIG. 5. The source says:
(§4) Ca2+ flux measurements were taken to test if GPR78, when activated with genistein, is coupled to the Gq-mediated pathway.
A general note: A change in cytosolic calcium serves as a functional read-out for many receptors and channels.

For the next assay, the target named is protein kinase A. Particulars: ref [27]; read-out: reported IC50 of H89; cited from earlier work.
In a further assay the target is adenylyl cyclase. The settings on record: cell-free enzyme assays, ref [28]; read-out: published IC50; cited from earlier work.
Assay [4] concerns the target T2, GPR26. Briefly: cre-luciferase cAMP reporter assay in GPR26-transfected HEK293/cre-luc cells. The assay is classed as cell-based. The settings on record: cre-luc reporter assay, transient transfection, FIG. 8A; read-out: EC50, activation of GPR26. Here is the method:
as §1
Forty hours after transfection, cells were stimulated by adding 5 μl of ligand in 60 μM 4-(3-butoxy-4-methoxy-benzyl)-2-Imidazolidinone in 293 SFM II serum-free media obtained from Gibco (Gaithersburg, Md.), and incubated for 6 hours at 37° C. in a 5% CO2-95% air incubator. […] Luciferase activity was determined with a luminometer (Luminoskan Ascent®, Thermo-Electron Corp.), at a speed of 100 milliseconds per well.
(§5) GPR26, another orphan GPCR, shares 51% identity in the seven transmembrane regions with GPR78 ([19]). […] HEK293/cre-luc cells were transiently transfected with pCR3.1-GPR26 and monitored cAMP levels upon stimulation with genistein. […]

Assay [5] addresses T1, GPR78. Briefly: Ca2+ flux assay (FLIPR) in GPR78-expressing HEK/cre-luc cells. The assay is classed as cell-based. The settings on record: genistein at concentrations near 100 μM, FIG. 5.
Description: Response of cells with the expressed receptor to test ligand stimulation was subject to two types of detection: intracellular cAMP accumulation and intracellular Ca2+ flux monitored with fluorescent intensity using a Fluorimetric Image Plate Reader (FLIPR). For cAMP measurement, a HEK293 cell line that had been stably transfected with luciferase reporter gene, was used as a host cell transiently transfected with the pCR3.1-GPR78 construct described in Example 1.
as §4

Assay [6] addresses T2, GPR26. The experiment in a line: direct intracellular cAMP measurement (Meso Scale Discovery kit) in HEK293/cre-luc cells stably transfected with GPR26. The settings on record: cells stably expressing GPR26, FIG. 8B. The assay is classed as cell-based. Here is the method:
(§6) Constructs PCR3.1-GPR78 and PCR3.1-GPR26 were transfected into HEK293/cre-luc cells with use of Lipofectamine™ 2000 and cells were selected for G418 resistance. Cells resistant to G418 were further diluted and selected for individual colonies. Cell lines grown from the G418-resistant colonies were screened for positive response with genistein in the Cre-Luciferase cAMP assay.
(§7) Intracellular cAMP was measured directly with a cAMP kit purchased from Meso Scale Discovery (Gaithersburg, Md., Ma6000 cAMP 384-well Kit, Catalog number K210FDD-2). The assay was preformed by following the manufacturer's protocol. Briefly, stable HEK293/cre-luc cells expressing GPR78 or GPR26 were harvested, washed with PBS and resuspended at 300,000/10 μl of assay buffer (from the kit) containing 0.5 mM IBMX. Genistein at appropriate concentrations was diluted in the cAMP assay buffer and 5 μl was added into wells of the assay plate. The mixture was then incubated at room temperature for 30 minutes. Light intensity in assay wells was measured using a MSD SI6000 instrument obtained from Meso Scale Discovery.
as §5

Assay [7] concerns the target T1, GPR78. The experiment in a line: direct intracellular cAMP measurement (Meso Scale Discovery kit) in HEK293/cre-luc cells stably transfected with GPR78. In kind it is cell-based. The settings on record: FIG. 2C, read-out: EC50, increase of cAMP level. Here is the method: as §6, §7
In another assay the target is T4, GPR30 (Homo sapiens, UniProt Q99527).
T4 construct: host or cells: MCF-7, MDA-MB-231, SKBR3 (as cited)
Particulars: Gβγ-mediated pathway, ref [25]; cited from earlier work.

T1 sequence (Q96P69 whole entry): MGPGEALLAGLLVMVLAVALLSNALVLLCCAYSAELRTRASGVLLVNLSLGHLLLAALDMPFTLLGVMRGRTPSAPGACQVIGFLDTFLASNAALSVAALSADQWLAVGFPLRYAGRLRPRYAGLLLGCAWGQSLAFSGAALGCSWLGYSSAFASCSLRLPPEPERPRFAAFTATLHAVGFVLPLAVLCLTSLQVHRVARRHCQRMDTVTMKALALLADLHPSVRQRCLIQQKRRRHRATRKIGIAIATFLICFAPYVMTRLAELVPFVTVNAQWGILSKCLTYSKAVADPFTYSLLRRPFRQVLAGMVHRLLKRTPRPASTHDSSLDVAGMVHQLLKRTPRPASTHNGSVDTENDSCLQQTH
T2 sequence (Q8NDV2 whole entry): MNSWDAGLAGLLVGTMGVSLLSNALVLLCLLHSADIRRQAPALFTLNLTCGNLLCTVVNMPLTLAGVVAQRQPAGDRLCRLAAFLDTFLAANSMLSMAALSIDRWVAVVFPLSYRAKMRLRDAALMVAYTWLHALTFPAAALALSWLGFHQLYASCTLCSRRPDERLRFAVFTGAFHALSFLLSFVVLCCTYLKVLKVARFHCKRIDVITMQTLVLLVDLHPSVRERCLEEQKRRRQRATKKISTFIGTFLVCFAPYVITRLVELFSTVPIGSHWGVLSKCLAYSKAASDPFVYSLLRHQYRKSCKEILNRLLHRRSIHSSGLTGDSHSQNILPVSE
T4 sequence (Q99527 whole entry): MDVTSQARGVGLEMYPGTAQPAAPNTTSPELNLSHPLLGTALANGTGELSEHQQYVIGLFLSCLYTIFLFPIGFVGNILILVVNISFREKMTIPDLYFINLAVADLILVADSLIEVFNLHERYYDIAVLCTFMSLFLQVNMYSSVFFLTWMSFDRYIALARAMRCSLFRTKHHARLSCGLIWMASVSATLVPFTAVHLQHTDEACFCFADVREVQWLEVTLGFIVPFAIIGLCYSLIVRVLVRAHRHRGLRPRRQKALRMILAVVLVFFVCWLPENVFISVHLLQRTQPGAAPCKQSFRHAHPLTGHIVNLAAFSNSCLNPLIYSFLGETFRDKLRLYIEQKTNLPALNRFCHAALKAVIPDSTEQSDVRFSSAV
Chain of NO synthase (NOS) (P29477 whole entry): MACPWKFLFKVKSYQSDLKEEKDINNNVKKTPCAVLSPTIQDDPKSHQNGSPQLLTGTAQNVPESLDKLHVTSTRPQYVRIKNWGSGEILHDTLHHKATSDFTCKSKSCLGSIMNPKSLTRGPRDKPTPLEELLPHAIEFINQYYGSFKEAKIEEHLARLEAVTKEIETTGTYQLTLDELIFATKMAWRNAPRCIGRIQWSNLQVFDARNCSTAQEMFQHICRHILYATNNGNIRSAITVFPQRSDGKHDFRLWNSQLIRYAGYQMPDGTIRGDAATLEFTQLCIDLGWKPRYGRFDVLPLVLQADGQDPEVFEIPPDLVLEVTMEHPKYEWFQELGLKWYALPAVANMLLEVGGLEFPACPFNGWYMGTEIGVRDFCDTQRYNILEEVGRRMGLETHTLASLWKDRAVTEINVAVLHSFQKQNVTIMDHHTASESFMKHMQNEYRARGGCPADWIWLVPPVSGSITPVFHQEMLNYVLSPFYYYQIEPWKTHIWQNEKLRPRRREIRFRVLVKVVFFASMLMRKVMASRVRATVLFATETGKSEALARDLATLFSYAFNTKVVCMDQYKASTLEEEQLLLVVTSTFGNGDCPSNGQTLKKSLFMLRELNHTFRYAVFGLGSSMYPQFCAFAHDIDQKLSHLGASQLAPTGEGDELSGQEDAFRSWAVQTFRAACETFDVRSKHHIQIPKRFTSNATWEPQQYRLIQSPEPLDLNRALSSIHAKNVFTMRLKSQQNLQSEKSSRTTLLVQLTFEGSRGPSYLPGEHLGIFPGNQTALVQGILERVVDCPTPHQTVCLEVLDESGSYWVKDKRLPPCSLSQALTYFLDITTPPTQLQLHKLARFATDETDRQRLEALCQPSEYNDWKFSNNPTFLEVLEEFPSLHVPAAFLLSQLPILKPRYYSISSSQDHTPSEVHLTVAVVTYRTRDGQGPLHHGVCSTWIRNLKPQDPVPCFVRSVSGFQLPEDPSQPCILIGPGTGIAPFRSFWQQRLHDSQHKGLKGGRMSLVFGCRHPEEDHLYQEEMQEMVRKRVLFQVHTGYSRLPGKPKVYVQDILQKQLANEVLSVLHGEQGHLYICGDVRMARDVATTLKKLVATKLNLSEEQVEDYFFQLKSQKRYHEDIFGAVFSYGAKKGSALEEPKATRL

Turning to `N#C/C(=C\c1ccc(O)c(O)c1)C(=O)NCc1ccccc1` [Tyrphostin B42], the “cAMP level compared with GPR78-expressing cells stimulated with buffer (Basal)” value at GPR78 [1] (FIG. 1) is on record as “not higher than the level in GPR78-expressing cells stimulated with buffer”. Further, at protein tyrosine kinase, the IC50 is 20 µM.

With `c1ccc2c(c1)[I+]c1ccccc1-2` [diphenyleneiodonium Cl, Diphenyleneiodonium Cl], the IC50 was 39 µM at GPR26 [2], 0.3 µM in the assay with rabbit aortic rings, 65 µM against GPR78 [3] and 0.03 µM on NO synthase (NOS).

`CC(C)(C)c1cc(C=C(C#N)C#N)cc(C(C)(C)C)c1O` [Tyrphostin A9]: the “cAMP level compared with GPR78-expressing cells stimulated with buffer (Basal)” value at GPR78 [1] (FIG. 1) is “not higher than the level in GPR78-expressing cells stimulated with buffer”. For the same compound, the IC50 at protein tyrosine kinase is 0.04 to 9 µM.

Consider `CC(=O)[C@H]1CC[C@H]2[C@@H]3CCC4=CC(=O)CC[C@]4(C)[C@H]3CC[C@]12C` [progesterone], for which the cAMP stimulation entry on GPR78 [1] is given as “No cAMP stimulation was observed”.

In the case of `C[n+]1cc2c3c(ccc2c2ccc4cc5c(cc4c21)OCO5)OCO3` [sanguinarine Cl hydrate], the IC50 at GPR26 [2] (cre-luc reporter assay, dose-response curves, read-out: IC50, inhibition of GPR26 activation) was found to be 0.26 µM; at GPR78 [3] (cre-luc reporter assay, dose-response curves, read-out: IC50, inhibition of GPR78 activation), 0.65 µM.

For the compound “neuropeptide S (SFRNGVGTGMKKTSFQRAKS) [ligand of GPR154, positive control in Ca2+ flux assay]”, the “response in Ca2+ flux assay” value with GPR154 was “responded to neuropeptide S acutely”.

With `Cl.Cl.O=S(=O)(NCCNCC=Cc1ccc(Br)cc1)c1cccc2cnccc12` [H89, N-[2-(p-bromocinnamylamino)ethyl]-5-isoquinolinesulfonamide dihydrochloride], the “effect on genistein-induced cAMP” value on GPR78 [1] (10 μM H89, 30 min pre-incubation) was “Most of genistein-induced cAMP was reduced”; on GPR78 [1] (100 μM H89, 30 min pre-incubation) it was “all cAMP accumulation was abolished”. Besides, the “effect on basal (constitutive) cAMP level” value at GPR78 [1] (10 μM H89, compared to cells with no H89, FIG. 6A) is “decrease of the basal cAMP level by approximately half”; on GPR78 [1] (100 μM H89, FIG. 6A), “completely inhibited cAMP accumulation”. In addition, the IC50 on protein kinase A is 0.05 µM.

On to `COc1ccc(-c2coc3cc(O)cc(O)c3c2=O)cc1` [biochanin A], for which the “cAMP level compared to buffer control / genistein” value on GPR78 [1] is “only slightly induced cAMP levels”.

`C[C@]12CC[C@H]3[C@@H](CCC4=CC(=O)CC[C@@]43C)[C@@H]1CC[C@@H]2O` [testosterone]: on GPR78 [1], the cAMP stimulation result was “No cAMP stimulation was observed”.

For the compound `O=c1c(-c2ccc(O)cc2)coc2cc(O)ccc12` [daidzein], the “cAMP level compared to buffer control / genistein” value at GPR78 [1] is reported as “significantly increased cAMP level comparable to that by genistein”.

With `Nc1ncnc2c1ncn2C1CCCO1` (centres unmarked) [SQ22536, 9-(Tetrahydro-2-furanyl)-9H-purin-6-amine], the “reduction of genistein-stimulated cAMP” value at GPR78 [1] (SQ22536 at 20 μM pre-incubated, FIG. 7) turned out to be 25%. Besides, the “reduction of cAMP level resulting from constitutive activity of GPR78” value on GPR78 [1] (SQ22536 at 20 μM pre-incubated, absence of genistein, FIG. 7) came to 34%. At adenylyl cyclase, the IC50 is 20 µM.

For the compound `O=c1c(-c2ccc(O)cc2)coc2cc(O)cc(O)c12` [genistein], the EC50 at GPR78 [1] is 6 to 10 µM; at GPR78 [1] (FIG. 2A, read-out: EC50, induction of cAMP), 7 µM; at GPR26 [4], roughly 10 µM; at GPR78 [7] it was roughly 6 µM. Moreover, the “increase of luciferase activity (cAMP production) compared to the mock transfection control” value at GPR78 [1] (25 μM genistein, transiently transfected cells, FIG. 1) is on record as “more than 8 fold”. For the same compound, the IC50 at protein tyrosine kinase is 1 to 22 µM. Also, the “activation in Ca++ flux assay” value at GPR78 [5] is reported as “not activated”. Further, on GPR26 [6], the cAMP production result was “stimulated cAMP production”. Also, the “potency of GPR30 activation” value on GPR30 was “low μM range”.
